Laboratory results published in article PMC10683025, “Discovery of a Hydroxylamine-Based Brain-Penetrant EGFR Inhibitor for Metastatic Non-Small-Cell Lung Cancer” (Journal of Medicinal Chemistry, 2023).
Values after ≈ are worked out from the molar mass of the structure shown. Read-outs that look alike come from different tables or passages of the source.

Experiments:
EGFRL858R [1] = biological target: T1, EGFRL858R (Homo sapiens, UniProt P00533, L858R); assay: KINOMEScan KdELECT Kd determination; type: binding; parameters: purchased Eurofins DiscoverX (contract assay)
Protocol: (§3) In vitro kinase activity (inhibitor binding constants (Kd) and biochemical inhibition (IC50’s)) were assessed by Eurofins DiscoverX (Kd determinations) and Eurofins Cerep (biochemical IC50 determinations).

[2] = Metabolic stability in liver microsomes; type: in vitro ADME, human; settings: for Remaining Percentage: human LM
Protocol: (§4) Microsome stability was assessed in duplicate (n = 2) in the presence and absence of nicotinamide adenine dinucleotide phosphate (NADPH) with liver microsomes (0.5 mg/mL) from human (BD Gentest) and Sprague-Dawley rats (BD Gentest). Compounds were incubated in liver microsomes at 1 μM and samples (30 μL) were taken at 0.5, 15, 30, 45, and 60 min time points for analysis by LC-MS/MS. Hepatocyte stability was assessed in duplicate (n = 2) at a working cell density of 0.5 × 10^6 cells/mL with hepatocytes from human (BiolVT), Sprague-Dawley rat (BiolVT), cynomolgus monkey (RILD) or beagle dog (BiolVT). […] The in vitro half-life and intrinsic clearances were determined as previously described.[76]
(§5) In vitro half-life (in vitro t1/2) was determined from the slope value in [drawing 1] where k was determined by linear regression of the natural logarithm of the remaining percentage of the parent drug vs the incubation time curve.

EGFRwt [3] = biological target: T2, EGFRwt (Homo sapiens, UniProt P00533); assay: KinaseProfiler enzymatic radiometric assay; type: biochemical; settings: wt, ATP 10 μM; read-out: EGFR IC50
T2 construct: purchased Eurofins DiscoverX (contract assay)
Protocol: as §3

Plasma stability [4] = type: in vitro ADME, Sprague-Dawley rat; settings: rat plasma; for t1/2: ∞ = no degradation
Protocol: (§1) Assessment of compounds to determine stability in incubations containing plasma of human (Pharmaron) and Sprague-Dawley rat (IPHASE) was performed by Pharmaron, Inc. using the compound […] approach. Compounds were assessed in duplicate (n = 2) and incubated in plasma at 5 μM and samples (50 μL) were taken at 0, 15, 30, 60, and 120 min time points for analysis by LC-MS/MS. Peak area ratios were determined from the extracted ion chromatogram and the percent compound remaining at each time point was calculated by the following equation: [drawing 2] where peak area ratiot min is the peak area ratio of control and test compound at t min and peak area ratio0 min is the peak area ratio of control and test compound at zero time point.

Caco-2 cells = assay: Caco-2 permeability; type: in vitro ADME; settings: Caco-2
Protocol: (§6) A 96-well HTS Transwell plate (Corning) was used for Caco-2 and MDCKII-MDR1 cell seeding. […] Plates were incubated at 37 °C for 2 h, and samples (50 μL) were taken at the beginning and end of the incubation in both the donor and acceptor wells with the assay run in duplicate (n = 2). Samples were analyzed by LC-MS/MS.
(§7) The efflux ratio was determined by using the following equation: [drawing 4] where Papp (B–A) indicates the apparent permeability in the basolateral to apical direction and Papp (A–B) indicates the apparent permeability in the apical to basolateral direction.

Caco-2 permeability = type: in vitro ADME; settings: human; for recovery at 2 h, 5 μM: Caco-2, Caco-2
Protocol: as §6, §7

EGFRL858R [5] = biological target: T1, EGFRL858R; assay: KinaseProfiler enzymatic radiometric assay; type: biochemical; parameters: purchased Eurofins Cerep (KinaseProfiler, contract assay); settings: ATP 10 μM, read-out: EGFR IC50
Protocol: as §3

Plasma stability [6] = type: in vitro ADME, human; settings: human plasma; for t1/2: ∞ = no degradation
Protocol: as §1

[7] = Plasma protein binding by equilibrium dialysis; type: in vitro ADME
Protocol: (§2) Plasma protein binding and brain tissue binding were determined by Pharmaron, Inc. using the equilibrium dialysis method. […] Following incubation, the samples were analyzed by LC-MS/MS and the concentrations of the compounds were determined in the buffer and plasma solution chambers.

[8] = tested on: HCC827 (EGFR mutation = exon19del); assay: CellTiter-Glo cell viability assay; type: cell-based, human; settings: Homo sapiens, HCC827; 72 h, unadjusted for FBS
Protocol: (§8) The NCI-H3255 cell line was obtained from CoBioer. […] NCI-H3255 cells were cultured in BEGM (Lonza) with 10% FBS. […] All cells were cultured in a humidified incubator with 5% CO2 at 37 °C.
(§9) Viability assays using A431, HCC827, NCI-H1975, NCI-H3255, Ba/F3 EGFR-del E746_A750/C797S, Ba/F3 EGFR-L858R/C797S, AU565, SK-BR-3, and ZR-75-30 cells were performed at Crown BioScience.

[9] = Lipophilicity, shake-flask; type: physicochemical; settings: 1-octanol/PBS; 1-octanol and PBS (pH 7.4); read-out: logD7.4
Protocol: Compound lipophilicity was determined by Pharmaron, Inc. using the shake-flask method with 1-octanol and PBS (pH 7.4). Each compound was assessed in duplicate (n = 2) at 1 μM in a 96-well plate shaken at 25 °C and 2000 rpm for 2 h. Samples were analyzed by liquid chromatography and tandem mass spectrometry (LC-MS/MS).

Solubility assay = type: physicochemical; settings: buffer, pH 7.4, aqueous buffer; read-out: Aq. Sol.
Protocol: Solubility was determined by Pharmaron, Inc. and each compound was assessed in duplicate (n = 2) by adding 15 μL of compound stock solution (10 mM in DMSO) into a 96-well plate along with 485 μL of buffer followed by shaking at 25 °C, 1100 rpm for 2 h. Wells were filtered, and samples (5 μL) were taken followed by dilution with an equal volume of DMSO (5 μL) and 490 μL of aqueous solution. Samples were analyzed by LC-MS/MS.

[10] = Metabolic stability in liver microsomes; type: in vitro ADME, Sprague-Dawley rat; settings: for Remaining Percentage: rat LM
Protocol: as §4, §5

MDCKII-MDR1 cells = assay: MDCKII-MDR1 permeability; type: in vitro ADME, canine; settings: MDCKII-MDR1
Protocol: as §6, §7

MDCKII-MDR1 permeability = type: in vitro ADME, canine; settings: dog, MDCK-MDR1, MDCKII-MDR1
Protocol: as §6, §7

MDR1 = assay: MDCKII-MDR1 permeability; type: in vitro ADME, canine; settings: dog, MDCK-MDR1
Protocol: as §6, §7

EGFR del E746_A750 = biological target: T3, EGFR del E746_A750 (Homo sapiens, UniProt P00533, DEL746-750); assay: KINOMEScan KdELECT Kd determination; type: binding
T3 construct: purchased Eurofins DiscoverX (contract assay)
Protocol: as §3

[11] = tested on: NCI-H3255 (EGFR mutation = L858R); assay: CellTiter-Glo cell viability assay; type: cell-based, human; settings: Homo sapiens, NCI-H3255; 72 h, unadjusted for FBS
Protocol: as §8, §9

EGFRwt [12] = biological target: T2, EGFRwt; assay: KINOMEScan KdELECT Kd determination; type: binding; settings: wt; read-out: EGFR Kd
Protocol: as §3

[13] = parameters: method as in PMID 33028591; settings: single oral dose of 10 mg/kg in Han Wistar rats ref 18; cited from earlier work
[14] = Metabolic stability in hepatocytes; type: in vitro ADME, Sprague-Dawley rat; settings: rat hepatocytes
Protocol: as §4, §5

[15] = Brain tissue binding by equilibrium dialysis; type: in vitro ADME; settings: rat
Protocol: as §2

[16] = Plasma protein binding by equilibrium dialysis; type: in vitro ADME, mouse
Protocol: as §2

P-gp and BCRP = tested on: P-gp and BCRP; parameters: method as in ref 17−20; settings: ref 17−20; cited from earlier work
[17] = Metabolic stability in hepatocytes; type: in vitro ADME, human; settings: for Remaining Percentages: human hepatocytes
Protocol: as §4, §5

[18] = cited from earlier work
[19] = human, human plasma, read-out: fu,plasma% / %Unbound (converted)
[20] = plasma, human, 5 μM, read-out: fu,plasma% / %Unbound (converted)
[21] = Sprague-Dawley, rat, rat plasma

T1 sequence (P00533 25-1210 L858R): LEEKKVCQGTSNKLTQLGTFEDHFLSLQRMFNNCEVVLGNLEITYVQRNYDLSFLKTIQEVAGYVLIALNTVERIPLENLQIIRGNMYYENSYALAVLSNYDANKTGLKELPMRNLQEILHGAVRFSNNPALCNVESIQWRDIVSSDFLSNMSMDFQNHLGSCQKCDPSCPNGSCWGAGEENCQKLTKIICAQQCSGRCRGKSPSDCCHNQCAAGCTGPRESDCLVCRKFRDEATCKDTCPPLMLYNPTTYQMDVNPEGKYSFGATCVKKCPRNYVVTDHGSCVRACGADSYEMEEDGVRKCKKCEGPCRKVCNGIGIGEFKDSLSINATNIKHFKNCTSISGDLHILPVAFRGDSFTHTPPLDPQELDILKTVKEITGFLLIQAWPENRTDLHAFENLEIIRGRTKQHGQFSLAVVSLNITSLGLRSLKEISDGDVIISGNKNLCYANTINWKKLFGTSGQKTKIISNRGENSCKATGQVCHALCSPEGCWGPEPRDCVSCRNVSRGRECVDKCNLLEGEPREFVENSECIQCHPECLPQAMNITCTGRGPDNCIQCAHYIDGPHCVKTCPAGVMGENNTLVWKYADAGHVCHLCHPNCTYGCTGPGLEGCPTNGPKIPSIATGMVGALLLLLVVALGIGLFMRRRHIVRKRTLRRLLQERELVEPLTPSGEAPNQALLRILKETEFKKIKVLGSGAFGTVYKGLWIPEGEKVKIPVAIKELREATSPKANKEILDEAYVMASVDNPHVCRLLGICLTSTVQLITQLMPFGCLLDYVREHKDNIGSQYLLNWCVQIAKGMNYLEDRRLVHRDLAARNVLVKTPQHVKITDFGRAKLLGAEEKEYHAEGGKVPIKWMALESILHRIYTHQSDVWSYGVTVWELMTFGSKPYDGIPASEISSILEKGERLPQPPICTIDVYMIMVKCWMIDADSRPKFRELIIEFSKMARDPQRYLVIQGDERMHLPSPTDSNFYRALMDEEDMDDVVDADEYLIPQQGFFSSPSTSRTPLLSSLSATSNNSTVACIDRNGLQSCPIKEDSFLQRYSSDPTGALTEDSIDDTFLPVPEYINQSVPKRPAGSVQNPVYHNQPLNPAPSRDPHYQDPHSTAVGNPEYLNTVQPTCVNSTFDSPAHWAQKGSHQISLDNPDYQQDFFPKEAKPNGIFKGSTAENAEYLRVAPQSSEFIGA
T2 sequence (P00533 25-1210): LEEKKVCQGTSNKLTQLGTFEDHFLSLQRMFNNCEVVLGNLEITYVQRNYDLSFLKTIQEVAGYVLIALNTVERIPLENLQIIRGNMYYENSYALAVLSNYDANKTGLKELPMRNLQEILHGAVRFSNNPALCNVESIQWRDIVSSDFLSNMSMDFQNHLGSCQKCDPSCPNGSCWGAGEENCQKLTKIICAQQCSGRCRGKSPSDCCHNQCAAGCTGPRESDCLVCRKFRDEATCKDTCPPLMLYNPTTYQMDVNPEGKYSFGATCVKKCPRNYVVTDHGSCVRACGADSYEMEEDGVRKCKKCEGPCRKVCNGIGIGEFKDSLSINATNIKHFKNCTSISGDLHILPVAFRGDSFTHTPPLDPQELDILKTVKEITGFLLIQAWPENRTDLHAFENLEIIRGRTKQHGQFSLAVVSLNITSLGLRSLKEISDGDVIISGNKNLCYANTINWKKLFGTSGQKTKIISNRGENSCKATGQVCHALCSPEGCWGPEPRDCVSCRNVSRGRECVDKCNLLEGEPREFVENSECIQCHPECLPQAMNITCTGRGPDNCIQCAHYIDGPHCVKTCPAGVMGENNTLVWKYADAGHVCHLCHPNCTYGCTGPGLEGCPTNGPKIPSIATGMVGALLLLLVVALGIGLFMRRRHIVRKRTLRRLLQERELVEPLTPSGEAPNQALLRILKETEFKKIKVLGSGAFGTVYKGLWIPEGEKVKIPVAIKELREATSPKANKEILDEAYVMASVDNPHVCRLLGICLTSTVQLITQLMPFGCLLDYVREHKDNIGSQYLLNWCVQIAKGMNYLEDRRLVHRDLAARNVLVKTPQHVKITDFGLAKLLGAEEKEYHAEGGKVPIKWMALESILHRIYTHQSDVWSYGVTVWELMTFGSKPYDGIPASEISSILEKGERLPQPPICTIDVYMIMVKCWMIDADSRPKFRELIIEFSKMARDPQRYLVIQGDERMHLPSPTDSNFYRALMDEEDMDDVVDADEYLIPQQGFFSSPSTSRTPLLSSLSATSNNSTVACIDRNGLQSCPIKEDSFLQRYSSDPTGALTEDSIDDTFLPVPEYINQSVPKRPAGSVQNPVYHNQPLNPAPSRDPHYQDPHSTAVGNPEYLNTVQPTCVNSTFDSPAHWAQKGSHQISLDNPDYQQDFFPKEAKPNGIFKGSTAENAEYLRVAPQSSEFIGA
T3 sequence (P00533 with tags, fused parts or gaps DEL746-750): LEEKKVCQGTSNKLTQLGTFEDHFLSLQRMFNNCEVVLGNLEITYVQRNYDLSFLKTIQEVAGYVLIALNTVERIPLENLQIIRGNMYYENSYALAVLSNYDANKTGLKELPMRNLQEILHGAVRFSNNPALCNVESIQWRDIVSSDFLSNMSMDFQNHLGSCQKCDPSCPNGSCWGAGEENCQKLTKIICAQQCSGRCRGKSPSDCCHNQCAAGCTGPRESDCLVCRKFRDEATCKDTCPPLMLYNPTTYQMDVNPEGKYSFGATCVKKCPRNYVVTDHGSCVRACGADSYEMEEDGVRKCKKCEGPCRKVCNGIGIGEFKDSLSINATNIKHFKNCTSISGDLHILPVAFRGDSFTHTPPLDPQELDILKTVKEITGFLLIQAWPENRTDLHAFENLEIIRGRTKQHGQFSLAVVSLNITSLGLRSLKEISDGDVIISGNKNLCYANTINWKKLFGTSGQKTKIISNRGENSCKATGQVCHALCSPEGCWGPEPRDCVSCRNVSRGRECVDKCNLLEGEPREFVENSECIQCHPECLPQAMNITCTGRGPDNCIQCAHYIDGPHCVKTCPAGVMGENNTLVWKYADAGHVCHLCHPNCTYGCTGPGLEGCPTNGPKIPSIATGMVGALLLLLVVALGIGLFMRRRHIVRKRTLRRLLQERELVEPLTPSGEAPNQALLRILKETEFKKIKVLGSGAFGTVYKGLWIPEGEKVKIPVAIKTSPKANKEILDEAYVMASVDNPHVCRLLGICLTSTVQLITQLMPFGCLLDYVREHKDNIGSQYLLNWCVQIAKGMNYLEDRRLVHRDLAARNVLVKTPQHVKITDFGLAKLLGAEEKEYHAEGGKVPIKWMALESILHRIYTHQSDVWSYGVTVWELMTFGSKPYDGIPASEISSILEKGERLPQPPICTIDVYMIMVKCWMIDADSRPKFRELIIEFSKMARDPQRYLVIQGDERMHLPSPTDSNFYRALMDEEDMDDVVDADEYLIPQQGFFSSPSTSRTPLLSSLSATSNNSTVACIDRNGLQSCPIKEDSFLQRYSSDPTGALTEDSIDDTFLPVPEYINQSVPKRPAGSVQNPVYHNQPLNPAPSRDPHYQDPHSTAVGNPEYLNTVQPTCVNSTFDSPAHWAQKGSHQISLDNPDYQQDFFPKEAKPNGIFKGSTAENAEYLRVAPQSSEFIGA

Compound: COc1cc2ncnc(Nc3ccc(F)c(Cl)c3)c2cc1OCCON1CCOCC1 [Compound 6, N-(3-Chloro-4-fluorophenyl)-7-methoxy-6-(2-(morpholinooxy)ethoxy)quinazolin-4-amine]
- Kd (EGFRL858R [1]; L858R): 0.8 nM
- binding and biochemical inhibition of activating mutant bearing EGFR (EGFRL858R [1]; in words, Tables S1 and S3): single-digit nanomolar
- Remaining Percentage ([2]; +Cofactors, 15 min): 49.30%
- Remaining Percentage ([2]; +Cofactors, 30 min): 28.74%
- Remaining Percentage ([2]; +Cofactors, 45 min): 20.85%
- Remaining Percentage ([2]; +Cofactors, 60 min): 14.00%
- Remaining Percentage ([2]; -Cofactors, 60 min): 89.19%
- half-life at 1 h, 1 µM ([2]; human, liver microsomes, read-out: LM t1/2): 21.6 min
- microsomal CLint at 1 h, 1 µM ([2]; human, liver microsomes, read-out: LMClint): 64 µL/min/mg
- IC50 (EGFRwt [3]): 5 nM
- Remaining Percentages (Plasma stability [4]; 15 min): 100.23%
- Remaining Percentages (Plasma stability [4]; 30 min): 99.35%
- Remaining Percentages (Plasma stability [4]; 60 min): 99.28%
- Remaining Percentages (Plasma stability [4]; 120 min): 104.21%
- t1/2 (Plasma stability [4]): ∞
- enhancement in permeability compared with 1 (Caco-2 cells): 14 fold
- efflux ratio at 2 h, 5 µM (Caco-2 permeability; Caco-2): 1.9
- efflux ratio at 2 h, 5 μM (Caco-2 permeability; Caco-2): 1.91
- recovery at 2 h, 5 μM (Caco-2 permeability; read-out: Recovery% (AP-BL)): 53.8%
- recovery at 2 h, 5 μM (Caco-2 permeability; read-out: Recovery% (BL-AP)): 60.3%
- Papp A→B at 2 h, 5 µM (Caco-2 permeability; Caco-2, 5 μM, 2 h): 5.6 ×10⁻⁶ cm/s
- Papp A→B at 2 h, 5 μM (Caco-2 permeability; Caco-2, 5 μM, 2 h): 5.59 ×10⁻⁶ cm/s
- Papp B→A at 2 h, 5 µM (Caco-2 permeability; Caco-2, 5 μM, 2 h): 10.7 ×10⁻⁶ cm/s
- Papp B→A at 2 h, 5 μM (Caco-2 permeability; Caco-2, 5 μM, 2 h): 10.7 ×10⁻⁶ cm/s
- IC50 (EGFRL858R [5]): < 1 nM
- Remaining Percentages (Plasma stability [6]; 15 min): 98.26%
- Remaining Percentages (Plasma stability [6]; 30 min): 102.87%
- Remaining Percentages (Plasma stability [6]; 60 min): 101.74%
- Remaining Percentages (Plasma stability [6]; 120 min): 97.90%
- t1/2 (Plasma stability [6]): ∞
- recovery at 6 h, 5 μM ([7]; human, human plasma): 101%
- remaining at 6 h, 5 μM ([7]; human, human plasma): 99.5%
- fraction unbound at 6 h, 5 μM [7, 19]: 0.0512
- fraction unbound at 6 h, 5 μM [7, 20]: 0.0512
- IC50 [8]: 4.2 nM
- logD at 2 h, 1 µM [9]: 3.9
- solubility kinetic at 2 h (Solubility assay): 1 µM (≈ 0.449 µg/mL)
- half-life at 1 h, 1 µM ([10]; Sprague-Dawley, rat, liver microsomes, read-out: LM t1/2): 19.5 min
- microsomal CLint at 1 h, 1 µM ([10]; Sprague-Dawley, rat, liver microsomes, read-out: LMClint): 71 µL/min/mg
- Remaining Percentage ([10]; +Cofactors, 15 min): 50.62%
- Remaining Percentage ([10]; +Cofactors, 30 min): 25.81%
- Remaining Percentage ([10]; +Cofactors, 45 min): 17.98%
- Remaining Percentage ([10]; +Cofactors, 60 min): 11.88%
- Remaining Percentage ([10]; -Cofactors, 60 min): 109.68%
- increase in permeability compared to 1 (MDCKII-MDR1 cells): roughly 4 fold
- recovery at 2 h, 1 μM (MDCKII-MDR1 permeability; read-out: Recovery% (AP-BL)): 51.6%
- recovery at 2 h, 1 μM (MDCKII-MDR1 permeability; read-out: Recovery% (BL-AP)): 66.4%
- efflux ratio at 2 h, 1 µM (MDR1): 2
- efflux ratio at 2 h, 1 μM (MDR1): 1.99
- Papp A→B at 2 h, 1 µM (MDR1; 1 μM, 2 h): 4.2 ×10⁻⁶ cm/s
- Papp A→B at 2 h, 1 μM (MDR1; 1 μM, 2 h): 4.19 ×10⁻⁶ cm/s
- Papp B→A at 2 h, 1 µM (MDR1; 1 μM, 2 h): 8.3 ×10⁻⁶ cm/s
- Papp B→A at 2 h, 1 μM (MDR1; 1 μM, 2 h): 8.26 ×10⁻⁶ cm/s
- Kd (EGFR del E746_A750): 0.3 nM
- IC50 [11]: 88 nM
- Kd (EGFRwt [12]): 0.6 nM

Compound: COc1cc2ncnc(Nc3ccc(F)c(Cl)c3)c2cc1OCCCN1CCOCC1 [Gefitinib (1), Gefitinib, reference compound]
- Kp,uu (AUC0−16h) [13]: 0.0092
- Remaining Percentage ([2]; +Cofactors, 15 min): 39.75%
- Remaining Percentage ([2]; +Cofactors, 30 min): 19.60%
- Remaining Percentage ([2]; +Cofactors, 45 min): 12.23%
- Remaining Percentage ([2]; +Cofactors, 60 min): 8.14%
- Remaining Percentage ([2]; -Cofactors, 60 min): 100.00%
- Remaining Percentages ([14]; 15 min): 66.86%
- Remaining Percentages ([14]; 30 min): 59.92%
- Remaining Percentages ([14]; 60 min): 39.44%
- Remaining Percentages ([14]; 90 min): 21.69%
- Remaining Percentages ([14]; 120 min): 13.94%
- Remaining Percentages (Plasma stability [4]; 15 min): 100.11%
- Remaining Percentages (Plasma stability [4]; 30 min): 98.28%
- Remaining Percentages (Plasma stability [4]; 60 min): 95.04%
- Remaining Percentages (Plasma stability [4]; 120 min): 93.66%
- t1/2 (Plasma stability [4]): ∞
- recovery at 6 h, 5 μM ([15]; Sprague-Dawley (SD), rat brain homogenate): 99.7%
- fraction unbound at 6 h, 5 μM ([15]; Sprague-Dawley, brain homogenate, read-out: fu,brain% / %Unboundbrain): 0.006
- remaining at 6 h, 5 μM ([15]; Sprague-Dawley, rat brain homogenate): 105%
- fraction unbound at 6 h, 5 μM ([15]; Sprague-Dawley, rat brain homogenate, read-out: %Boundbrain (converted)): 0.006
- Remaining Percentages (Plasma stability [6]; 15 min): 103.40%
- Remaining Percentages (Plasma stability [6]; 30 min): 103.92%
- Remaining Percentages (Plasma stability [6]; 60 min): 101.33%
- Remaining Percentages (Plasma stability [6]; 120 min): 104.45%
- t1/2 (Plasma stability [6]): ∞
- fraction unbound at 6 h, 5 μM ([7]; Sprague-Dawley, rat, plasma, 5 μM, read-out: fu,plasma% / %Unbound): 0.0249
- recovery at 6 h, 5 μM [7, 21]: 105%
- remaining at 6 h, 5 μM [7, 21]: 105%
- fraction unbound at 6 h, 5 μM ([7]; Sprague-Dawley, rat, rat plasma, read-out: %Bound (converted)): 0.0249
- recovery at 6 h, 5 μM ([7]; human, human plasma): 106%
- remaining at 6 h, 5 μM ([7]; human, human plasma): 98.8%
- fraction unbound at 6 h, 5 μM [7, 19]: 0.0766
- fraction unbound at 6 h, 5 μM [7, 20]: 0.0766
- recovery at 6 h, 5 μM ([16]; CD-1, mouse, mouse plasma): 99.4%
- remaining at 6 h, 5 μM ([16]; CD-1, mouse, mouse plasma): 98%
- fraction unbound at 6 h, 5 μM ([16]; CD-1, mouse, mouse plasma, read-out: %Bound (converted)): 0.0781
- fraction unbound at 6 h, 5 μM ([16]; CD-1, plasma, mouse, 5 μM, read-out: fu,plasma% / %Unbound): 0.0781
- efflux status against common efflux transporters (P-gp and BCRP): P-gp and BCRP Substrate
- logD at 2 h, 1 µM [9]: 3.7
- solubility kinetic at 2 h (Solubility assay): 4 µM (≈ 1.79 µg/mL)
- Remaining Percentage ([10]; +Cofactors, 15 min): 63.13%
- Remaining Percentage ([10]; +Cofactors, 30 min): 37.48%
- Remaining Percentage ([10]; +Cofactors, 45 min): 25.25%
- Remaining Percentage ([10]; +Cofactors, 60 min): 19.26%
- Remaining Percentage ([10]; -Cofactors, 60 min): 115.38%
- Remaining Percentages ([17]; 15 min): 97.55%
- Remaining Percentages ([17]; 30 min): 94.76%
- Remaining Percentages ([17]; 60 min): 73.38%
- Remaining Percentages ([17]; 90 min): 50.47%
- Remaining Percentages ([17]; 120 min): 39.53%
- half-life at 2 h, 1 µM ([17]; human, hepatocytes, read-out: HEP t1/2): 83.5 min

Compound: hydroxylamine
- pKa [18]: 5.9
